This is an account of results in PMC6792169 (ACS Medicinal Chemistry Letters, 2019).

In data set [1] the test system is 44 tumor cell lines. The following applies: matched 44 cell line panel; cited from earlier work.
Data set [2] concerns OVCAR-3 xenograft. The note with it: 50 mg/kg p.o. QD for 28 days, day 45; cited from earlier work.
The nature of data set [3]: Liver microsome stability. It counts as in vitro ADME. The following applies: rat, liver microsomes, pH 7.4.
A further data set has as its system 66 cancer cell lines. The experiment in a line: NTRC Oncolines proliferation, panel mean. Type of data set: cell-based. The note with it: read-out: mean half-maximal growth inhibition (GI50).
The subject of data set [4] is OVCAR-3 xenograft. The experiment in a line: OVCAR-3 xenograft model. The following applies: 6.3 mg/kg p.o. QD. It counts as in vivo, BALB/c nude mice.
Data set [5] deals with protein and lipid kinases (KINOMEScan panel). The experiment in a line: KINOMEScan panel selectivity. The following applies: 10 μM. It counts as binding.
The target of a further data set is PI3Kγ (Homo sapiens, UniProt P48736). The data set can be described thus: DiscoverX KdELECT. The following applies: Inhibitor binding constant Kd PI3Kγ, fourth PI3K column of Table S2.
Sequence of PI3Kγ (P48736 whole entry): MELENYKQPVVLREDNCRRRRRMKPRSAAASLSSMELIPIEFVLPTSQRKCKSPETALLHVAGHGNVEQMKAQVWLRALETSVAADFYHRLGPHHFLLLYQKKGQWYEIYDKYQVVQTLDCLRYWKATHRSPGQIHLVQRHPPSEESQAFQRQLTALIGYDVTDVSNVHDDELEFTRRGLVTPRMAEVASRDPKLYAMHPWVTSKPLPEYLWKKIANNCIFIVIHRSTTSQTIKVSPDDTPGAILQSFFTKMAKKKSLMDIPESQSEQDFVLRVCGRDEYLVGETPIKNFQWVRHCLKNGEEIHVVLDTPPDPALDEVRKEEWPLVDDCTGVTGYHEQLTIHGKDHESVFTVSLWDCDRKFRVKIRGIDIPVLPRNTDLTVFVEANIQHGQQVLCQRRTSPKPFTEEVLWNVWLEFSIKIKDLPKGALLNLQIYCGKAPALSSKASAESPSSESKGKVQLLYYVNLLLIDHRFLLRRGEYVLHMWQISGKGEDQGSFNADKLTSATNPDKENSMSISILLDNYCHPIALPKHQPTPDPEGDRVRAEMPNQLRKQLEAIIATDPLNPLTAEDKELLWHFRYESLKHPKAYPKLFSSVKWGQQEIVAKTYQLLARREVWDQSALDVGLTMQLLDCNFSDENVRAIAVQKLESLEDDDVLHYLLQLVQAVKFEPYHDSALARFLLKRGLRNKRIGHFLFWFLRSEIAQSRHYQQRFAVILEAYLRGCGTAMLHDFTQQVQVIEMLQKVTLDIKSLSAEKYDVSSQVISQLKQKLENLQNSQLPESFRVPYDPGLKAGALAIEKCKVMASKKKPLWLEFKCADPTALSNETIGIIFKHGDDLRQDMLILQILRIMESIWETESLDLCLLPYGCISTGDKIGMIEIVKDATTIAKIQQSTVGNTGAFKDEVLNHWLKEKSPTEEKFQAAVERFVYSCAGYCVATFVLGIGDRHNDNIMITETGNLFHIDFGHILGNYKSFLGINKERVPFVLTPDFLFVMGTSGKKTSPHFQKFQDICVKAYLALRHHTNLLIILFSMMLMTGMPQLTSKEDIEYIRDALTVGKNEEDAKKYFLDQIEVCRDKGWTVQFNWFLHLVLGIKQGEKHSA
A short description of another data set: Pharmacokinetics in mice. The note with it: plasma, 10 mg/kg p.o.
For another data set, the target named is PI3Kβ (Homo sapiens, UniProt P42338). The experiment in a line: DiscoverX KdELECT. The note with it: Inhibitor binding constant Kd PI3Kβ, second PI3K column of Table S2.
Sequence of PI3Kβ (P42338 whole entry): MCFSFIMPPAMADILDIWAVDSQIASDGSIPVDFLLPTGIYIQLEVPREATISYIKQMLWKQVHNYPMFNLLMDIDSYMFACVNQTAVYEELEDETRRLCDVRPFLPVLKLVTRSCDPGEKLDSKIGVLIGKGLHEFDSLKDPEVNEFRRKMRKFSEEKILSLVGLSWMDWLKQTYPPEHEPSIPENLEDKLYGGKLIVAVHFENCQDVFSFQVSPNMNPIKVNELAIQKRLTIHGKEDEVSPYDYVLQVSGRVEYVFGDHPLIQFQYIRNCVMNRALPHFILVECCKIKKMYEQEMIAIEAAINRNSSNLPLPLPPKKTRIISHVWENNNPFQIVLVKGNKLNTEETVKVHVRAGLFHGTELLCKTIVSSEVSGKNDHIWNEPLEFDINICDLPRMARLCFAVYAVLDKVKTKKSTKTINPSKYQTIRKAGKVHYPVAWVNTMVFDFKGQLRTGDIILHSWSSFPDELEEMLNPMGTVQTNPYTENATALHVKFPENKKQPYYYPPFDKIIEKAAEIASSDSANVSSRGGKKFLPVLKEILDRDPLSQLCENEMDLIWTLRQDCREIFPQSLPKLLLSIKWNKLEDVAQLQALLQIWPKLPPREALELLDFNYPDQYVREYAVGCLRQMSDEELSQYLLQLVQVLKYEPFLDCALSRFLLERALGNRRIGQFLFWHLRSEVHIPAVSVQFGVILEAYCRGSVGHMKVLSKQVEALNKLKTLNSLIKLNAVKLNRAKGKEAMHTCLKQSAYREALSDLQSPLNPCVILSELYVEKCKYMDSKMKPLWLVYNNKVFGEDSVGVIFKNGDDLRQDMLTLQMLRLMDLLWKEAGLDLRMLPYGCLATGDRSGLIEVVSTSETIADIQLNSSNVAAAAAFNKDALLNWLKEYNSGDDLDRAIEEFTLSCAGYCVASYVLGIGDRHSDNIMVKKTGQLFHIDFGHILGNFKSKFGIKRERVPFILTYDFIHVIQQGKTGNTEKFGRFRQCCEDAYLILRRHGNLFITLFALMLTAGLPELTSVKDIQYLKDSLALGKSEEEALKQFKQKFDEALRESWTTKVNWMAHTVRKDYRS
The next data set deals with T1, PI3Kδ (Homo sapiens, UniProt O00329).
T1 sequence (O00329 1-1044): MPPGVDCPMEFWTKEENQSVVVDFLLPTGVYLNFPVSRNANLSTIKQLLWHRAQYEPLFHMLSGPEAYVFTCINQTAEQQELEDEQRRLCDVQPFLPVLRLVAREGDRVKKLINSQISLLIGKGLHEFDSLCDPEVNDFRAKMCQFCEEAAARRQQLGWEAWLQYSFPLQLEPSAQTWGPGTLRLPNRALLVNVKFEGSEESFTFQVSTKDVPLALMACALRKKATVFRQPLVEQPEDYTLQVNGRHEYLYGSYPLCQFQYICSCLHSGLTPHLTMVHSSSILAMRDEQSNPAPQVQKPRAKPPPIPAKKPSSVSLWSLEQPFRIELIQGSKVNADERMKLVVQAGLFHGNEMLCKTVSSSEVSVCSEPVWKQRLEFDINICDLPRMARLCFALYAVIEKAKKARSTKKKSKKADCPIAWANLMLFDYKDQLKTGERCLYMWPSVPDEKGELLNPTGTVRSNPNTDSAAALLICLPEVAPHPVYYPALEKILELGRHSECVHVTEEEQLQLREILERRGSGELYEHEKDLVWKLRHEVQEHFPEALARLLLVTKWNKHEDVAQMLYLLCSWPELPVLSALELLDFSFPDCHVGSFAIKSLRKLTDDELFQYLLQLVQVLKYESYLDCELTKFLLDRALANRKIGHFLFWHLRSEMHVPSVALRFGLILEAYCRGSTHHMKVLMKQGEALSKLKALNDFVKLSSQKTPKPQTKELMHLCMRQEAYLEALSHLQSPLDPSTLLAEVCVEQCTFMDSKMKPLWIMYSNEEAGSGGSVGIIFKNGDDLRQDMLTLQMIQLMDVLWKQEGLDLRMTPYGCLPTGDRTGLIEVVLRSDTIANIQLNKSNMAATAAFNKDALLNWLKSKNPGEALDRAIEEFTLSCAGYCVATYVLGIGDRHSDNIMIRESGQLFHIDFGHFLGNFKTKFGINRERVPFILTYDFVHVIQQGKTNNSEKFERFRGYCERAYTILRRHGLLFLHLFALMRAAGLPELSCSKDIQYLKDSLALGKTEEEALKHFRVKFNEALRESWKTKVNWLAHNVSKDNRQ
The experiment in a line: DiscoverX KdELECT. The following applies: Inhibitor binding constant Kd PI3Kδ, third PI3K column of Table S2.

Data set [6] in a line: Liver microsome stability. Type of data set: in vitro ADME. The following applies: dog, liver microsomes, pH 7.4. (In general: Liver microsomes are a subcellular fraction often used to study metabolism.)
The nature of data set [7]: Liver microsome stability. The following applies: human, liver microsomes, pH 7.4. Type of data set: in vitro ADME.
Data set [8] relates to 44 tumor cell lines. The data set can be described thus: NTRC Oncolines proliferation, panel mean. The note with it: 4-4 cell. Type of data set: cell-based.
For data set [9], the system named is CEREP BioPrint (P22-p) panel. The experiment in a line: CEREP BioPrint. Type of data set: binding. The note with it: 10 μM.
The target in another data set is PI3Kα (Homo sapiens, UniProt P42336). The data set can be described thus: DiscoverX KdELECT. The following applies: Inhibitor binding constant Kd PI3Kα, first PI3K column of Table S2.
Sequence of PI3Kα (P42336 whole entry): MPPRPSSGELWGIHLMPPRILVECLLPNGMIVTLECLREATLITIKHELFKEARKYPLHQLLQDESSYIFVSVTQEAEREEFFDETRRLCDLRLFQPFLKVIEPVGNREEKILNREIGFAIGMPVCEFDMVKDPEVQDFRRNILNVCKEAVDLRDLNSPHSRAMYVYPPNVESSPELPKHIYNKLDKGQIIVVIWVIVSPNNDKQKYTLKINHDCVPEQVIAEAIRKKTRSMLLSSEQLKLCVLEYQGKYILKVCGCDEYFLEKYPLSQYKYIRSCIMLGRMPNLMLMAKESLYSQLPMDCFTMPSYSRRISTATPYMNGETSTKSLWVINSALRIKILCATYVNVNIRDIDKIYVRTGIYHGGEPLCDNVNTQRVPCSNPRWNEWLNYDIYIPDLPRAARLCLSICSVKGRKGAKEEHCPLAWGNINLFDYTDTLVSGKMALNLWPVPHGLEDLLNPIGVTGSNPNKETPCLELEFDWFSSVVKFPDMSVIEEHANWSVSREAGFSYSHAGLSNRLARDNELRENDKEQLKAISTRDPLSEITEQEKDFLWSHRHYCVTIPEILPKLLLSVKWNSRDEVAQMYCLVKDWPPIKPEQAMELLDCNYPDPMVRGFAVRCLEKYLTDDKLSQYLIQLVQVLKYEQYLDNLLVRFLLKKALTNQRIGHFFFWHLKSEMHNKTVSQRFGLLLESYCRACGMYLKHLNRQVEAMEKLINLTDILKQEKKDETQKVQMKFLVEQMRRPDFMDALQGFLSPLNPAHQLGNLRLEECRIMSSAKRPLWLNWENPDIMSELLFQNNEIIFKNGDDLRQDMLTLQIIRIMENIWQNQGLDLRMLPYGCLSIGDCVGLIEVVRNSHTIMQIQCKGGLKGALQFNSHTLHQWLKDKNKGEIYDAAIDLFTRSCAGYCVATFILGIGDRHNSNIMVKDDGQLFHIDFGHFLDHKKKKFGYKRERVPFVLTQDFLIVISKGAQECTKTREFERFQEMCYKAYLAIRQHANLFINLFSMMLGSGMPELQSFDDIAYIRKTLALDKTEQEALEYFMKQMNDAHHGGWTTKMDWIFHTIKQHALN

Read-outs that look alike come from different tables or passages of the source. Bounds are passed on as bounds.

Broadly, the GI50 is the concentration giving 50% growth inhibition. For `Nc1cc(C(F)(F)F)c(-c2nc(N3CCOCC3)nc(N3CCOCC3)n2)cn1` [PQR309 (1), 5-(4,6-Dimorpholino-1,3,5-triazin-2-yl)-4-(trifluoromethyl)pyridin-2-amine], the GI50 in the data set on 44 tumor cell lines [1] is approximately 1 µM. Also, the mean tumor size in the data set on OVCAR-3 xenograft [2] was 571 mm^3.
In general, Kd refers to the concentration at which binding is half-saturated. Higher therefore signals a looser complex. Regarding `Nc1ncc(-c2nc(N3CCOCC3)nc(N3CCOCC3)n2)c(C(F)F)n1` [PQR514 (4)], the share remaining at 0.5 h, 1 µM in data set [3] stood at 109 ± 10.7%; in data set [6] it was 92.7 ± 0.2%; in [7], 87.2 ± 3.5%. In addition, the GI50 in the data set with 66 cancer cell lines was 0.25 µM; in the data set on 44 tumor cell lines [8], 0.24 µM. Further, in the data set on OVCAR-3 xenograft [4], the “body weight / tolerability” value was “no significant body weight loss was observed”. In addition, the “tumor weight analysis vs vehicle” value in the data set with OVCAR-3 xenograft [4] (day 45) is reported as “significantly inhibited tumor growth”. In addition, in data set [5], the “interference with protein kinase activities” value is reported as “negligible interference with protein kinase activities”. The Kd at PI3Kγ, on PI3Kβ, at PI3Kδ and on PI3Kα was less than 0.007 µM each time. In the data set “Pharmacokinetics in mice”, this molecule gave a Cl of 15.6 mL/min/kg. In addition, the off-target interactions result in data set [9] is recorded as “With the exception of human PDE3A (phosphodiesterase 3A), no or very weak interactions were detected”.
With `C[C@H]1COCCN1c1nc(-c2cnc(N)cc2C(F)F)nc(N2CCOCC2)n1` [PQR530 (16), (S)-4-(Difluoromethyl)-5-(4-(3-methylmorpholino)-6-morpholino-1,3,5-triazin-2-yl)p yridin-2-amine], the GI50 in the data set with 44 tumor cell lines [1] is approximately 0.4 µM.
